Experiments:
Mcl-1 = Mcl-1 (Homo sapiens, UniProt Q07820); experiment: Inhibition of Mcl-1 (disruption of Mcl-1/Bim interaction); assay type: binding; conditions: for % Inhibition (25 μM) Mcl-1 / inhibition at 25 µM: compound at 25 μM; for % Inhibition (50 μM) Mcl-1 / inhibition at 50 µM: compound at 50 μM
Procedure: (§1) In a subsequent study, a structurally diverse library of forty five thio acids and thirty eight sulfonyl azides (identified above) was screened in parallel against Mcl-1 and Bcl-XL using the above mentioned approach. Several potential hit combinations were identified (Table 3). All of these kinetic TGS hit compounds were synthesized (identified above and in Table 3). All the reactions were performed at 20-30 mg scale. The 9-fluorenylmethyl thioester was placed in a 2.0 mL vial and 3.5% DBU/dry DMF solution was added (per 1 μmol of thioester, 4.7 μL, of 3.5% DBU/dry DMF solution was added) and the reaction was stirred for one minute. Then the sulfonylazide (1 eq to thioester) was added to the reaction mixture and immediately bubbling was observed. After the reaction was completed (approximately one minute, monitored by LC-MS) water (200 μL) was added and the pH was adjusted to 7.0 using 1M HCl solution. The reaction mixture was extracted with DCM until there is no product in the aqueous layer (checked by TLC or LC-MS). The product was purified by flash chromatography. Testing of these acylsulfonamides has shown that the hit compounds disrupt the Bcl-XL/Bim or Mcl-1/Bim interaction (Table 3).

Bcl-XL = Bcl-XL (Homo sapiens, UniProt Q07817); experiment: Inhibition of Bcl-XL (disruption of Bcl-XL/Bim interaction); assay type: binding; conditions: for % Inhibition (25 μM) Bcl-XL / inhibition at 25 µM: compound at 25 μM; for % Inhibition (50 μM) Bcl-XL / inhibition at 50 µM: compound at 50 μM
Procedure: as §1

Mcl-1, sequence (Q07820 whole entry, species assumed): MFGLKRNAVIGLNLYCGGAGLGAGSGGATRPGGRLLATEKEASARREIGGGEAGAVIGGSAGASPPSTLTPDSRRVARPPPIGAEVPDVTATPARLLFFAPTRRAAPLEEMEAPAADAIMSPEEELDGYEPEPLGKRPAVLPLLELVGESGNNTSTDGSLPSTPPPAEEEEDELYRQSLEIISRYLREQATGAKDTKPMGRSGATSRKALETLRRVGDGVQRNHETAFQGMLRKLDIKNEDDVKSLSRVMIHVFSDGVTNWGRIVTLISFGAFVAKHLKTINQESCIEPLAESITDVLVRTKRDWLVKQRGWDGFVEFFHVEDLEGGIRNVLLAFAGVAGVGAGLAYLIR
Bcl-XL, sequence (Q07817 whole entry, species assumed): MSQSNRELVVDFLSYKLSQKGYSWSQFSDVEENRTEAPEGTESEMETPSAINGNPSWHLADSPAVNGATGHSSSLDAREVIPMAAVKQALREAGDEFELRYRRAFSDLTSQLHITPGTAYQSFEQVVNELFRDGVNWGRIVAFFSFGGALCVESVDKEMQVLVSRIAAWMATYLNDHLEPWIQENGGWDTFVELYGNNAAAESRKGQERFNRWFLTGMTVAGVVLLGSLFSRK

Row | % Inhibition (25 μM) Mcl-1 (Mcl-1) | % Inhibition (50 μM) Mcl-1 (Mcl-1) | inhibition at 50 µM (Bcl-XL) | Structure (SMILES) | other results
1 | 9.0% | 24.4% | – | O=C(NS(=O)(=O)c1ccc(CN2CCN(c3ccccc3)CC2)cc1)c1ccc(-c2ccc(F)cc2)cc1 [SZ1TA14] | % Inhibition (25 μM) Bcl-XL (Bcl-XL): 9.6%; % Inhibition (50 μM) Bcl-XL (Bcl-XL): <2.0%
2 | 18.7% | 21.5% | – | CCOc1ccc(-c2ccc3c(c2)c(C(=O)NS(=O)(=O)c2ccc(CN4CCN(c5ccccc5)CC4)cc2)cn3C)cc1F [SZ1TA23] | –
3 | 11.8% | 2.6% | – | O=C(NS(=O)(=O)c1ccc(CN2CCN(c3ccccc3)CC2)cc1)c1ccc2c(ccn2Cc2ccc(C(F)(F)F)cc2C(F)(F)F)c1 [SZ1TA30] | % Inhibition (25 μM) Bcl-XL (Bcl-XL): <2.0%; % Inhibition (50 μM) Bcl-XL (Bcl-XL): <2.0%
4 | 14.2% | 16.2% | – | CN(CCc1ccccc1)Cc1ccc(S(=O)(=O)NC(=O)c2ccc(C(c3c[nH]c4ccccc34)c3c[nH]c4ccccc34)cc2)cc1 [SZ2TA31] | % Inhibition (25 μM) Bcl-XL (Bcl-XL): 14.9%; % Inhibition (50 μM) Bcl-XL (Bcl-XL): 9.4%
5 | 44.7% | 80.6% | – | COc1ccccc1-c1ccc(C(=O)NS(=O)(=O)c2ccc(NCCSc3ccccc3)c([N+](=O)[O-])c2)cc1 [SZ4TA21] | –
6 | – | – | 42.6% | O=C(NS(=O)(=O)c1ccc(NCCSc2ccccc2)c([N+](=O)[O-])c1)c1ccc2c(ccn2Cc2ccc(C(F)(F)F)cc2C(F)(F)F)c1 [SZ4TA30] | IC50 (Mcl-1): 26.1 µM; inhibition at 25 µM (Mcl-1): 68.7%; IC50 (Bcl-XL): > 50 µM; inhibition at 25 µM (Bcl-XL): 41.2%
7 | <2.0% | <2.0% | – | CCOc1ccc(-c2ccc3c(c2)c(C(=O)NS(=O)(=O)c2ccc(CNCCSc4ccccc4)cc2)cn3C)cc1F [SZ6TA23] | –
8 | – | – | 73% | CC1(C)CCN(c2ccc(C(=O)NS(=O)(=O)c3ccc4ccc(S(=O)(=O)NCCSc5ccccc5)cc4c3)cc2)CC1 [SZ7TA2] | IC50 (Mcl-1): 16.9 µM; inhibition at 25 µM (Mcl-1): 49.6%; inhibition at 50 µM (Mcl-1): 93.9%; IC50 (Bcl-XL): 28.6 µM; inhibition at 25 µM (Bcl-XL): 15.5%
9 | 14.8% | 24.9% | – | COc1cc2c(cc1OC)C(c1ccccc1)N(Cc1ccc(S(=O)(=O)NC(=O)c3ccc(N4CCC(C)(C)CC4)cc3)cc1)CC2 (stereo not drawn) [SZ8TA2] | –
10 | – | – | 13.9% | COc1cc2c(cc1OC)C(c1ccccc1)N(Cc1ccc(S(=O)(=O)NC(=O)c3ccc(-c4ccc(F)cc4)cc3)cc1)CC2 (stereo not drawn) [SZ8TA14] | inhibition at 25 µM (Mcl-1): 35.2%; inhibition at 50 µM (Mcl-1): 58.3%; inhibition at 25 µM (Bcl-XL): 14.4%
11 | – | – | < 2% | COc1cc2c(cc1OC)C(c1ccccc1)N(Cc1ccc(S(=O)(=O)NC(=O)CCCN3C(=O)C(c4ccc(F)cc4F)=C(c4ccc(F)cc4F)C3=O)cc1)CC2 (stereo not drawn) [SZ8TA20] | inhibition at 25 µM (Mcl-1): 23.5%; inhibition at 25 µM (Bcl-XL): 9.1%
12 | 43.6% | 79.2% | – | COc1cc2c(cc1OC)C(c1ccccc1)N(Cc1ccc(S(=O)(=O)NC(=O)c3ccc(Cc4ccc(OC)c(OC)c4OC)cc3)cc1)CC2 (stereo not drawn) [SZ8TA24] | –
13 | <2.0% | <2.0% | – | COc1cc2c(cc1OC)C(c1ccccc1)N(Cc1ccc(S(=O)(=O)NC(=O)c3ccc(C(c4c[nH]c5ccccc45)c4c[nH]c5ccccc45)cc3)cc1)CC2 (stereo not drawn) [SZ8TA31] | % Inhibition (25 μM) Bcl-XL (Bcl-XL): <2.0%; % Inhibition (50 μM) Bcl-XL (Bcl-XL): <2.0%
14 | – | – | 79.5% | [N-]=[N+]=NS(=O)(=O)c1ccc(CN(CCSc2ccccc2)Cc2ccc(S(=O)(=O)NC(=O)c3ccccc3)cc2)cc1 [SZ9TA1] | IC50 (Mcl-1): 19.8 µM
15 | – | – | 21.6% | Cc1nc(-c2ccccc2)sc1C(=O)NS(=O)(=O)c1ccc(CN(CCSc2ccccc2)Cc2ccc(S(=O)(=O)N=[N+]=[N-])cc2)cc1 [SZ9TA3] | IC50 (Mcl-1): 22.7 µM; inhibition at 50 µM (Mcl-1): 83.1%
16 | 30% | 42.5% | – | [N-]=[N+]=NS(=O)(=O)c1ccc(CN(CCSc2ccccc2)Cc2ccc(S(=O)(=O)NC(=O)c3ccc(-c4ccc(F)cc4)cc3)cc2)cc1 [SZ9TA14] | % Inhibition (25 μM) Bcl-XL (Bcl-XL): 8.4%; % Inhibition (50 μM) Bcl-XL (Bcl-XL): 7.0%
17 | – | – | 63.5% | [N-]=[N+]=NS(=O)(=O)c1ccc(CN(CCSc2ccccc2)Cc2ccc(S(=O)(=O)NC(=O)c3ccc(CCc4ccccn4)cc3)cc2)cc1 [SZ9TA17] | IC50 (Mcl-1): 20.4 µM; inhibition at 25 µM (Mcl-1): 69.3%; inhibition at 50 µM (Mcl-1): 103%; inhibition at 25 µM (Bcl-XL): 50%
18 | – | – | < 2% | [N-]=[N+]=NS(=O)(=O)c1ccc(CN(CCSc2ccccc2)Cc2ccc(S(=O)(=O)NC(=O)CCCN3C(=O)C(c4ccc(F)cc4F)=C(c4ccc(F)cc4F)C3=O)cc2)cc1 [SZ9TA20] | inhibition at 25 µM (Mcl-1): 15.7%; inhibition at 50 µM (Mcl-1): 6.9%; inhibition at 25 µM (Bcl-XL): < 2%
19 | – | – | < 2% | [N-]=[N+]=NS(=O)(=O)c1ccc(CN(CCSc2ccccc2)Cc2ccc(S(=O)(=O)NC(=O)c3ccc(-c4ccccn4)cc3)cc2)cc1 [SZ9TA25] | inhibition at 25 µM (Mcl-1): 43.1%; inhibition at 25 µM (Bcl-XL): 18.6%

Row | % Inhibition (25 μM) Mcl-1 (Mcl-1) | % Inhibition (50 μM) Mcl-1 (Mcl-1) | inhibition at 50 µM (Bcl-XL) | Structure (SMILES) | other results
20 | – | – | 52.1% | CC1(C)CCN(c2ccc(C(=O)NS(=O)(=O)c3ccc(CN(CCSc4ccccc4)Cc4ccc(S(N)(=O)=O)cc4)cc3)cc2)CC1 [SZ10TA2] | IC50 (Mcl-1): 15.8 µM; inhibition at 25 µM (Mcl-1): 41.7%; inhibition at 50 µM (Mcl-1): 94.7%; IC50 (Bcl-XL): 44 µM
21 | 35.2% | 37.4% | – | NS(=O)(=O)c1ccc(CN(CCSc2ccccc2)Cc2ccc(S(=O)(=O)NC(=O)Cn3c4ccccc4c4ccccc43)cc2)cc1 [SZ10TA15] | % Inhibition (25 μM) Bcl-XL (Bcl-XL): 9.4%; % Inhibition (50 μM) Bcl-XL (Bcl-XL): <2.0%
22 | – | – | < 2% | NS(=O)(=O)c1ccc(CN(CCSc2ccccc2)Cc2ccc(S(=O)(=O)NC(=O)CCCN3C(=O)C(c4ccc(F)cc4F)=C(c4ccc(F)cc4F)C3=O)cc2)cc1 [SZ10TA20] | inhibition at 25 µM (Mcl-1): 27.8%; inhibition at 50 µM (Mcl-1): 7.6%; inhibition at 25 µM (Bcl-XL): 3.8%
23 | 52.3% | 57.3% | – | COc1ccccc1-c1ccc(C(=O)NS(=O)(=O)c2ccc(CN(CCSc3ccccc3)Cc3ccc(S(N)(=O)=O)cc3)cc2)cc1 [SZ10TA21] | –
24 | 43.9% | 93.6% | – | NS(=O)(=O)c1ccc(CN(CCSc2ccccc2)Cc2ccc(S(=O)(=O)NC(=O)c3ccc(-c4ccccn4)cc3)cc2)cc1 [SZ10TA25] | % Inhibition (25 μM) Bcl-XL (Bcl-XL): 33.9%; % Inhibition (50 μM) Bcl-XL (Bcl-XL): 53.4%
25 | 2.8% | 12.4% | – | NS(=O)(=O)c1ccc(CN(CCSc2ccccc2)Cc2ccc(S(=O)(=O)NC(=O)c3ccc4oc(-c5ccccc5)cc4c3)cc2)cc1 [SZ10TA41] | –
26 | – | – | – | CC(C)(C)c1ccc(-c2ccc(S(=O)(=O)NC(=O)c3ccc(-c4ccccn4)cc3)cc2)cc1 [SZ11TA25] | inhibition at 25 µM (Mcl-1): 20.1%; inhibition at 50 µM (Mcl-1): 65.8%
27 | 7.1% | 54.1% | – | CC1(C)CCN(c2ccc(C(=O)NS(=O)(=O)c3ccc(CNc4cccc([N+](=O)[O-])c4)cc3)cc2)CC1 [SZ12TA2] | –
28 | 6.1% | 21.5% | – | CCOc1ccc(-c2ccc3c(c2)c(C(=O)NS(=O)(=O)c2ccc(CNc4cccc([N+](=O)[O-])c4)cc2)cn3C)cc1F [SZ12TA23] | –
29 | – | – | – | O=C(NS(=O)(=O)c1ccc(CN(CCSc2ccccc2)Cc2c(F)cccc2Cl)cc1)c1cccc2ccccc12 [SZ15TA7] | IC50 (Mcl-1): 15.4 µM
30 | 26.0% | 80.9% | – | COc1ccccc1-c1ccc(C(=O)NS(=O)(=O)c2ccc(-c3ccc(C(F)(F)F)cc3)cc2)cc1 [SZ16TA21] | –
31 | 65.1% | 74.1% | – | COc1cccc(CN(CCSc2ccccc2)Cc2ccc(S(=O)(=O)NC(=O)c3ccc(Cc4ccc(OC)c(OC)c4OC)cc3)cc2)c1 [SZ17TA24] | –
32 | 4.5% | <2.0% | – | CC1(C)CCN(c2ccc(C(=O)NS(=O)(=O)CCN3CCc4ccccc4C3)cc2)CC1 [SZ23TA2] | –
33 | 18.1% | 11.4% | – | O=C(NS(=O)(=O)CCN1CCC(Cc2ccccc2)CC1)c1ccc2c(ccn2Cc2ccc(C(F)(F)F)cc2C(F)(F)F)c1 [SZ24TA30] | –
34 | 18.8% | 87.2% | – | Cc1nc(-c2ccccc2)sc1C(=O)NS(=O)(=O)c1ccc(-c2ccc(Oc3ccccc3)cc2)cc1 [SZ35TA3] | –
35 | 28.6% | 87.8% | – | O=C(NS(=O)(=O)c1ccc(-c2ccc(Oc3ccccc3)cc2)cc1)c1cccc2ccccc12 [SZ35TA7] | –
36 | 18.8% | 89.2% | – | O=C(NS(=O)(=O)c1ccc(-c2ccc(Oc3ccccc3)cc2)cc1)c1ccc(CCc2ccccn2)cc1 [SZ35TA17] | –
37 | 72.3% | 76.4% | – | COc1ccc(Cc2ccc(C(=O)NS(=O)(=O)c3ccc(-c4ccc(Oc5ccccc5)cc4)cc3)cc2)c(OC)c1OC [SZ35TA24] | –

Row | Structure (SMILES) | % Inhibition (25 μM) Mcl-1 (Mcl-1) | % Inhibition (50 μM) Mcl-1 (Mcl-1) | inhibition at 50 µM (Bcl-XL) | other results
38 | COc1cc(OC)cc(C(=O)NS(=O)(=O)c2ccc(CN(CCSc3ccccc3)Cc3ccc(S(=O)(=O)N=[N+]=[N-])cc3)cc2)c1 [SZ9TA5] | – | – | 60.3% | IC50 (Mcl-1): 8.1 µM; inhibition at 25 µM (Mcl-1): 50%; inhibition at 50 µM (Mcl-1): > 99%; IC50 (Bcl-XL): 36 µM; inhibition at 25 µM (Bcl-XL): 8.6%
39 | [N-]=[N+]=NS(=O)(=O)c1ccc(CN(CCSc2ccccc2)Cc2ccc(S(=O)(=O)NC(=O)c3cccc4ccccc34)cc2)cc1 [SZ9TA7] | – | – | 44.5% | IC50 (Mcl-1): 8.2 µM

Source: patent US10551389B2, “Target binding molecules identified by kinetic target-guided synthesis” (UNIVERSITY OF SOUTH FLORIDA, priority 2013, dated 2020)
